The source of these data is patent US10722578B2, “Methods and compositions for treating neuroblastoma” (The Children's Hospital of Philadelphia, priority 2008, dated 2020).

In one series the test system is neuroblastoma cell lines. Description: In vitro growth inhibition (RT-CES), panel of neuroblastoma cell lines. The class given is cell-based, human. As to conditions: 333 nM, 72 hours; for Inhibition of growth, cell lines with ALK amplification or mutations: compared with normal copy number wild type ALK lines. The text has this: A quantitative assay to evaluate growth inhibition in a multi-well was used in a parallel format to screen for cellular cytotoxicity. […] For FIG. 7, the biochemical consequences of ALK activation and downstream signaling pathways were studied in ALK-mutant lines.
(§1) To verify cell line integrity, all lines were routinely genotyped (AmpFLSTR® Identifiler® kit; Applied Biosystems) and mycoplasma tested.
It has been shown that mRNA knockdown of ALK in neuroblastoma cell lines with mutation or amplification is cytotoxic, and thus ALK inhibition might offer a tractable therapeutic target.

The next series deals with NB1 (WT amplification). The conditions noted are these: NB1, dose-dependent.
Description: as §1

For the next series, the system named is NB1643 (R1275Q). As to conditions: NB1643, dose-dependent.
Description: as §1

For another series, the system named is SH-SY5Y (F1174L). As to conditions: did not occur until this dose.
Description: as §1

In series [1] the test system is SY5Y cells. Put plainly: Antibody-dependent cell-mediated cytotoxicity assay, SY5Y targets. The class given is cell-based, human. As to conditions: SY5Y pre-incubated 48 hours with crizotinib, then ALK antibody, mean. The method, then:
The Cyto Tox 96 Non-Radioactive Cytotoxicity Assay (Promega) was used to assess antibody-dependent cell mediated cytotoxicity. […] Non-adherent peripheral blood lymphocytes were then replated in complete RPMI containing 1000 IU/ml rhIL-2 (Chiron) and incubated overnight. The following day, effector cells were collected and washed. Target NB1 or SY5Y cells that had been grown on T75 flasks until 70-80% confluency were also harvested and washed. […] Control wells were plated according to the manufacturer's specifications. After a 4-hour incubation at 37° C., cell viability was assessed by an enzymatic assay allowing for the quantification of lactate dehydrogenase which is released upon cell lysis. The % cytotoxicity was calculated as follows: [(Experimental−Effector Spontaneous−Target Spontaneous)/(Target Maximum−Target Spontaneous)]×100. […] Results shown are representative of three independent experiments, and quoted as mean±standard deviation.

Series [2] relates to SY5Y cells. Put plainly: Propidium iodide staining, cell cycle analysis, SY5Y. Type of series: cell-based, human. As to conditions: 1000 nM crizotinib, 10 μg/ml antibody, or both, mean.
Series [3] concerns SHSY5Y (F1174L) xenografts. The conditions noted are these: 100 mg/kg/day oral gavage, 4 weeks; end point tumor volume ≥1.5 cm^3 or treatment related death.
Another series relates to NBSD (F1174L) xenografts. The conditions noted are these: 100 mg/kg/day oral gavage, 4 weeks.
Another series relates to NBEBc1 (WT) xenografts. As to conditions: 100 mg/kg/day oral gavage, 4 weeks.
The next series has as its system SKNAS (WT) xenografts. The conditions noted are these: 100 mg/kg/day oral gavage, 4 weeks.
The subject of another series is pSTAT3, pAKT, and pERK. Description: In vitro phosphoprotein detection (immunoblot), downstream signaling. The conditions noted are these: NB1 (wild type amplified). Background: In western blotting, separated proteins are transferred to a membrane and probed.

Values joined by “and” are separate entries in the source; they are usually repeats but may differ in a detail not shown here. Identical values can stand only once. “Also recorded” adds a separate entry of the source. Like-named read-outs stand apart in the source and are kept apart here.

As for `C[C@@H](Oc1cc(-c2cnn(C3CCNCC3)c2)cnc1N)c1c(Cl)ccc(F)c1Cl` [PF-02341066, crizotinib], the “Inhibition of growth, cell lines with normal copy number WT ALK” value in the series with neuroblastoma cell lines was “No cell lines with normal copy number WT ALK showed significant inhibition”. Further, the “Sensitivity of R1275Q cell lines compared with F1174L cell lines” value with neuroblastoma cell lines is “more sensitive”; in the series with neuroblastoma cell lines (listed as PF2341066), “R1275Q mutations were more sensitive than F1174L mutations; also recorded: significantly more sensitive”. Also, the “Inhibition of growth, cell lines with ALK amplification or mutations” value was “significantly superior inhibition of growth” in the series with neuroblastoma cell lines and “sensitive; also recorded: significantly more sensitive” in the series on neuroblastoma cell lines (listed as PF2341066). Besides, the “Dose at which inhibition of proliferation occurred” value with NB1 (WT amplification) is 33 to 100 nM; with NB1643 (R1275Q), 33 to 100 nM and 33 nM; with SH-SY5Y (F1174L), 1000 nM. Further, the ADCC % cytotoxicity with SY5Y cells [1] (effector:target 25:1) is reported as 33.7±2.5%; with SY5Y cells [1] (effector:target 50:1), 55.7±9.3%. Besides, the “sub G0 fraction” value in the series with SY5Y cells [2] was “increased the sub G0 fraction, but to a smaller extent than seen with dual treatment”. Besides, the Prolongation of survival in series [3] is listed as 7.7 days; in the series on NBSD (F1174L) xenografts, 3.7 days; in the series on NBEBc1 (WT) xenografts, 5.1 days. Besides, the “Prolongation of survival / days to reach tumor volume of 1.5 cm^3” value in the series on SKNAS (WT) xenografts is reported as “non-significant difference in days to reach a tumor volume of 1.5 cm^3”; in the series on SKNAS (WT) xenografts (listed as PF-2341066), “neither a delay in tumor growth (P=0.87) or prolongation of survival”. Besides, in the series on pSTAT3, pAKT, and pERK, the “Abrogation of phosphorylation of STAT3, AKT and ERK” value is recorded as “substantial abrogation”.
